Results taken from ChEMBL document CHEMBL1914418, “Biochemical and pharmacological profiling of the pro-survival protein Bcl-xL” (Bioorg Med Chem Lett, 2011).

How the values were obtained:
Bcl-2-like protein 1 [1] = molecular target: Bcl-2-like protein 1 (Homo sapiens, UniProt Q07817, A142G); assay: Displacement of BODIPY-Bak conjugated peptide from GST-tagged human Bcl-2-like protein 1 A142G mutant expressed in Escherichia coli BL21 cells at 40 uM after 3 hrs by fluorescence polarization competition assay
Bcl-2-like protein 1 (Homo sapiens, UniProt Q07817, A142G), sequence (Q07817 whole entry A142G): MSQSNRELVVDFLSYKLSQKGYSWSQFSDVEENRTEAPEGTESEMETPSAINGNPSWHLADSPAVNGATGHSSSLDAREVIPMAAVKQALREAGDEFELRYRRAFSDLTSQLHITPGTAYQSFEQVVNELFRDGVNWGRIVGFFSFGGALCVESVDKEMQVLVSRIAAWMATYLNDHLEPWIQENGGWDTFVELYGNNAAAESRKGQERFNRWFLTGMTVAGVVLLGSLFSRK

Bcl-2-like protein 1 [2] = molecular target: T1, Bcl-2-like protein 1 (Homo sapiens, UniProt Q07817); assay: Displacement of BODIPY-Bak conjugated peptide from GST-tagged human Wild type Bcl-2-like protein 1 expressed in Escherichia coli BL21 cells at 40 uM after 3 hrs by fluorescence polarization competition assay
T1 sequence (Q07817 whole entry): as the sequence (Q07817 whole entry A142G) above, with G142A counted along it

Bcl-2-like protein 1 [3] = molecular target: Bcl-2-like protein 1 (Homo sapiens, UniProt Q07817, V141A); assay: Displacement of BODIPY-Bak conjugated peptide from GST-tagged human Bcl-2-like protein 1 V141A mutant expressed in Escherichia coli BL21 cells at 40 uM after 3 hrs by fluorescence polarization competition assay
Bcl-2-like protein 1 (Homo sapiens, UniProt Q07817, V141A), sequence (Q07817 whole entry V141A): as the sequence (Q07817 whole entry A142G) above, with V141A, G142A counted along it

[4] = Displacement of BODIPY-Bak conjugated peptide from GST-tagged human Bcl-2-like protein 1 A142G, delta136T mutant expressed in Escherichia coli BL21 cells at 40 uM after 3 hrs by fluorescence polarization competition assay
Bcl-2-like protein 1 [5] = molecular target: Bcl-2-like protein 1 (Homo sapiens, UniProt Q07817, A93V); assay: Displacement of BODIPY-Bak conjugated peptide from GST-tagged human Bcl-2-like protein 1 A93V mutant expressed in Escherichia coli BL21 cells at 40 uM after 3 hrs by fluorescence polarization competition assay
Bcl-2-like protein 1 (Homo sapiens, UniProt Q07817, A93V), sequence (Q07817 whole entry A93V): as the sequence (Q07817 whole entry A142G) above, with A93V, G142A counted along it

[6] = Displacement of BODIPY-Bak conjugated peptide from GST-tagged human Bcl-2-like protein 1 delta136T mutant expressed in Escherichia coli BL21 cells at 40 uM after 3 hrs by fluorescence polarization competition assay
Bcl-2-like protein 1 [7] = molecular target: T2, Bcl-2-like protein 1 (Homo sapiens, UniProt Q07817, L130V); assay: Displacement of BODIPY-Bak conjugated peptide from GST-tagged human Bcl-2-like protein 1 L130V mutant expressed in Escherichia coli BL21 cells at 40 uM after 3 hrs by fluorescence polarization competition assay
T2 sequence (Q07817 whole entry L130V): as the sequence (Q07817 whole entry A142G) above, with L130V, G142A counted along it

Bcl-2-like protein 1 [8] = molecular target: Bcl-2-like protein 1 (Homo sapiens, UniProt Q07817, E96G); assay: Displacement of BODIPY-Bak conjugated peptide from GST-tagged human Bcl-2-like protein 1 E96G mutant expressed in Escherichia coli BL21 cells at 40 uM after 3 hrs by fluorescence polarization competition assay
Bcl-2-like protein 1 (Homo sapiens, UniProt Q07817, E96G), sequence (Q07817 whole entry E96G): as the sequence (Q07817 whole entry A142G) above, with E96G, G142A counted along it

Bcl-2-like protein 1 [9] = molecular target: Bcl-2-like protein 1 (Homo sapiens, UniProt Q07817, A142T); assay: Displacement of BODIPY-Bak conjugated peptide from GST-tagged human Bcl-2-like protein 1 A142T mutant expressed in Escherichia coli BL21 cells at 40 uM after 3 hrs by fluorescence polarization competition assay
Bcl-2-like protein 1 (Homo sapiens, UniProt Q07817, A142T), sequence (Q07817 whole entry A142T): as the sequence (Q07817 whole entry A142G) above, with G142T counted along it

Bcl-2-like protein 1 [10] = molecular target: Bcl-2-like protein 1 (Homo sapiens, UniProt Q07817, Y195F); assay: Displacement of BODIPY-Bak conjugated peptide from GST-tagged human Bcl-2-like protein 1 Y195F mutant expressed in Escherichia coli BL21 cells at 40 uM after 3 hrs by fluorescence polarization competition assay
Bcl-2-like protein 1 (Homo sapiens, UniProt Q07817, Y195F), sequence (Q07817 whole entry Y195F): as the sequence (Q07817 whole entry A142G) above, with G142A, Y195F counted along it

Bcl-2-like protein 1 [11] = molecular target: T3, Bcl-2-like protein 1 (Homo sapiens, UniProt Q07817, L130G); assay: Displacement of BODIPY-Bak conjugated peptide from GST-tagged human Bcl-2-like protein 1 L130G mutant expressed in Escherichia coli BL21 cells at 40 uM after 3 hrs by fluorescence polarization competition assay
T3 sequence (Q07817 whole entry L130G): as the sequence (Q07817 whole entry A142G) above, with L130G, G142A counted along it

Bcl-2-like protein 1 [12] = molecular target: Bcl-2-like protein 1 (Homo sapiens, UniProt Q07817, R100E); assay: Displacement of BODIPY-Bak conjugated peptide from GST-tagged human Bcl-2-like protein 1 R100E mutant expressed in Escherichia coli BL21 cells at 40 uM after 3 hrs by fluorescence polarization competition assay
Bcl-2-like protein 1 (Homo sapiens, UniProt Q07817, R100E), sequence (Q07817 whole entry R100E): as the sequence (Q07817 whole entry A142G) above, with R100E, G142A counted along it

Bcl-2-like protein 1 [13] = molecular target: Bcl-2-like protein 1 (Homo sapiens, UniProt Q07817, E129H); assay: Displacement of BODIPY-Bak conjugated peptide from GST-tagged human Bcl-2-like protein 1 E129H mutant expressed in Escherichia coli BL21 cells at 40 uM after 3 hrs by fluorescence polarization competition assay
Bcl-2-like protein 1 (Homo sapiens, UniProt Q07817, E129H), sequence (Q07817 whole entry E129H): as the sequence (Q07817 whole entry A142G) above, with E129H, G142A counted along it

Bcl-2-like protein 1 [14] = molecular target: Bcl-2-like protein 1 (Homo sapiens, UniProt Q07817, L130A); assay: Displacement of BODIPY-Bak conjugated peptide from GST-tagged human Bcl-2-like protein 1 L130A mutant expressed in Escherichia coli BL21 cells at 40 uM after 3 hrs by fluorescence polarization competition assay
Bcl-2-like protein 1 (Homo sapiens, UniProt Q07817, L130A), sequence (Q07817 whole entry L130A): as the sequence (Q07817 whole entry A142G) above, with L130A, G142A counted along it

Bcl-2-like protein 1 [15] = molecular target: Bcl-2-like protein 1 (Homo sapiens, UniProt Q07817, F97V); assay: Displacement of BODIPY-Bak conjugated peptide from GST-tagged human Bcl-2-like protein 1 F97V mutant expressed in Escherichia coli BL21 cells at 40 uM after 3 hrs by fluorescence polarization competition assay
Bcl-2-like protein 1 (Homo sapiens, UniProt Q07817, F97V), sequence (Q07817 whole entry F97V): as the sequence (Q07817 whole entry A142G) above, with F97V, G142A counted along it

Bcl-2-like protein 1 [16] = molecular target: Bcl-2-like protein 1 (Homo sapiens, UniProt Q07817, G196A); assay: Displacement of BODIPY-Bak conjugated peptide from GST-tagged human Bcl-2-like protein 1 G196A mutant expressed in Escherichia coli BL21 cells at 40 uM after 3 hrs by fluorescence polarization competition assay
Bcl-2-like protein 1 (Homo sapiens, UniProt Q07817, G196A), sequence (Q07817 whole entry G196A): as the sequence (Q07817 whole entry A142G) above, with G142A, G196A counted along it

Bcl-2-like protein 1 [17] = molecular target: Bcl-2-like protein 1 (Homo sapiens, UniProt Q07817, Y101H); assay: Displacement of BODIPY-Bak conjugated peptide from GST-tagged human Bcl-2-like protein 1 Y101H mutant expressed in Escherichia coli BL21 cells at 40 uM after 3 hrs by fluorescence polarization competition assay
Bcl-2-like protein 1 (Homo sapiens, UniProt Q07817, Y101H), sequence (Q07817 whole entry Y101H): as the sequence (Q07817 whole entry A142G) above, with Y101H, G142A counted along it

Bcl-2-like protein 1 [18] = molecular target: T3, Bcl-2-like protein 1; assay: Displacement of BODIPY-Bak conjugated peptide from GST-tagged human Bcl-2-like protein 1 L130G mutant expressed in Escherichia coli BL21 cells at 10 uM after 3 hrs by fluorescence polarization competition assay
Bcl-2-like protein 2 = molecular target: T4, Bcl-2-like protein 2 (Homo sapiens, UniProt Q92843); assay: Displacement of BODIPY-Bak conjugated peptide from GST-tagged human wild type Bcl-W expressed in Escherichia coli BL21 cells at 10 uM after 3 hrs by fluorescence polarization competition assay
T4 sequence (Q92843 whole entry): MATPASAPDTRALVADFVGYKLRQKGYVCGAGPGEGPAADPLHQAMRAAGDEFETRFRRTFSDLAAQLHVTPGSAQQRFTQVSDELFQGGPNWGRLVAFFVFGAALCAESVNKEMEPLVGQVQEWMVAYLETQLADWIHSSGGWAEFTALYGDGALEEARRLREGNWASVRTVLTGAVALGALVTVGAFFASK

Bcl-2-like protein 1 [19] = molecular target: T2, Bcl-2-like protein 1; assay: Displacement of BODIPY-Bak conjugated peptide from GST-tagged human Bcl-2-like protein 1 L130V mutant expressed in Escherichia coli BL21 cells at 10 uM after 3 hrs by fluorescence polarization competition assay
[20] = molecular target: T5, Induced myeloid leukemia cell differentiation protein Mcl-1 homolog (Mus musculus, UniProt P97287); assay: Displacement of BODIPY-Bak conjugated peptide from GST-tagged mouse wild type MCL1 expressed in Escherichia coli BL21 cells at 10 uM after 3 hrs by fluorescence polarization competition assay
T5 sequence (P97287 whole entry): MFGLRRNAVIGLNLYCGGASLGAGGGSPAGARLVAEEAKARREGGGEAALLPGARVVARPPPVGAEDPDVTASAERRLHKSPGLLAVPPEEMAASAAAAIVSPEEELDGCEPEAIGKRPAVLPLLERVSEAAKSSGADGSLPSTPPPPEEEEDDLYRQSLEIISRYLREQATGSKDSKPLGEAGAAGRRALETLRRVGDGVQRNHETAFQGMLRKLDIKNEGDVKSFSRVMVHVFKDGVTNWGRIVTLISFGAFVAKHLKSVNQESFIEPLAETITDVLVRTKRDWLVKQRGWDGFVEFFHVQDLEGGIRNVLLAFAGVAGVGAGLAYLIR

Bcl-2-like protein 1 [21] = molecular target: T1, Bcl-2-like protein 1; assay: Displacement of BODIPY-Bak conjugated peptide from GST-tagged human Wild type Bcl-2-like protein 1 expressed in Escherichia coli BL21 cells at 10 uM after 3 hrs by fluorescence polarization competition assay
[22] = Displacement of BODIPY-Bak conjugated peptide from GST-tagged human Bcl-2-like protein 1 A142Gdelta136T mutant expressed in Escherichia coli BL21 cells at 10 uM after 3 hrs by fluorescence polarization competition assay
Bcl-2-related protein A1 = molecular target: T6, Bcl-2-related protein A1 (Homo sapiens, UniProt Q16548); assay: Binding affinity for GST-tagged human BCL2A1 expressed in Escherichia coli BL21 cells
T6 sequence (Q16548 whole entry): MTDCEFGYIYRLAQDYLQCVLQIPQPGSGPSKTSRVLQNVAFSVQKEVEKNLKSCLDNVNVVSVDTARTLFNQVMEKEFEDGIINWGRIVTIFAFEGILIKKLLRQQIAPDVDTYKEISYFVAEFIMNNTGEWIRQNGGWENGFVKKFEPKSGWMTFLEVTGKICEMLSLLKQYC

[23] = molecular target: T5, Induced myeloid leukemia cell differentiation protein Mcl-1 homolog; assay: Binding affinity for GST-tagged mouse MCL1 expressed in Escherichia coli BL21 cells
[24] = Displacement of BODIPY-Bak conjugated peptide from GST-tagged human Bcl-2-like protein 1 delta136T mutant expressed in Escherichia coli BL21 cells at 10 uM after 3 hrs by fluorescence polarization competition assay

In the case of `CSCC[C@H](NC(=O)[C@H](CCCNC(=N)N)NC(=O)[C@H](CCCNC(=N)N)NC(=O)[C@H](CC(C)C)NC(=O)[C@H](CCC(=O)O)NC(=O)[C@H](CCCNC(=N)N)NC(=O)CNC(=O)[C@H](Cc1ccc(O)cc1)NC(=O)[C@H](CCCNC(=N)N)NC(=O)[C@H](CCC(N)=O)NC(=O)[C@H](C)NC(=O)[C@H](C)NC(=O)[C@H](Cc1c[nH]c2ccccc12)NC(=O)[C@@H](N)CC(C)C)C(=O)N[C@@H](CO)C(=O)N[C@@H](CC(=O)O)C(=O)N[C@@H](CCC(=O)O)C(=O)N[C@@H](Cc1ccccc1)C(=O)N[C@@H](CCC(=O)O)C(=O)NCC(=O)N[C@@H](CO)C(=O)N[C@@H](Cc1ccccc1)C(=O)N[C@@H](CCCCN)C(=O)NCC(=O)N[C@@H](CC(C)C)C(=O)O`, the Ki (Bcl-2-like protein 1 [1]) is reported as less than 0.001 µM, the Ki (Bcl-2-like protein 1 [2]) is reported as 0.0032 µM and the Ki (Bcl-2-like protein 1 [3]) is reported as 0.042 µM. The Ki [4] was 0.0098 µM, the Ki (Bcl-2-like protein 1 [5]) was less than 0.001 µM and the Ki [6] was 0.0085 µM. The Ki (Bcl-2-like protein 1 [7]) was 0.011 µM, the Ki (Bcl-2-like protein 1 [8]) was less than 0.005 µM and the Ki (Bcl-2-like protein 1 [9]) was 0.041 µM. For the same molecule, the Ki (Bcl-2-like protein 1 [10]) was 0.0045 µM, the Ki (Bcl-2-like protein 1 [11]) was 0.66 µM and the Ki (Bcl-2-like protein 1 [12]) was 0.055 µM. It also gave a Ki (Bcl-2-like protein 1 [13]) of 0.077 µM, a Ki (Bcl-2-like protein 1 [14]) of 0.14 µM and a Ki (Bcl-2-like protein 1 [15]) of 0.15 µM. It also gave a Ki (Bcl-2-like protein 1 [16]) of 0.0023 µM and a Ki (Bcl-2-like protein 1 [17]) of 0.096 µM.
In the case of `CC[C@H](C)[C@H](NC(=O)[C@H](CCC(=O)O)NC(=O)[C@H](CCCNC(=N)N)NC(=O)[C@H](C)NC(=O)[C@H](Cc1c[nH]c2ccccc12)NC(=O)[C@H](CCC(N)=O)NC(=O)[C@H](CCC(=O)O)NC(=O)[C@@H](N)CCC(=O)O)C(=O)NCC(=O)N[C@@H](C)C(=O)N[C@@H](CCC(N)=O)C(=O)N[C@@H](CC(C)C)C(=O)N[C@@H](CCCNC(=N)N)C(=O)N[C@@H](CCCNC(=N)N)C(=O)N[C@@H](CCSC)C(=O)N[C@@H](C)C(=O)N[C@@H](CC(=O)O)C(=O)N[C@@H](CC(=O)O)C(=O)N[C@@H](CC(C)C)C(=O)N[C@@H](CC(N)=O)C(=O)N[C@@H](C)C(=O)N[C@@H](CCC(N)=O)C(=O)N[C@@H](Cc1ccc(O)cc1)C(=O)N[C@@H](CCC(=O)O)C(=O)N[C@@H](CCCNC(=N)N)C(=O)N[C@@H](CCCNC(=N)N)C(=O)O`, the Ki (Bcl-2-like protein 1 [1]) is reported as 0.0097 µM, the Ki (Bcl-2-like protein 1 [2]) is reported as 0.0014 µM and the Ki (Bcl-2-like protein 1 [3]) is reported as 0.1 µM. The Ki [4] was 0.075 µM, the Ki (Bcl-2-like protein 1 [5]) was greater than 10 µM and the Ki [6] was 0.026 µM. The Ki (Bcl-2-like protein 1 [7]) was 0.029 µM, the Ki (Bcl-2-like protein 1 [8]) was greater than 10 µM and the Ki (Bcl-2-like protein 1 [9]) was 0.13 µM. The Ki (Bcl-2-like protein 1 [10]) was 0.0087 µM, the Ki (Bcl-2-like protein 1 [11]) was 0.53 µM and the Ki (Bcl-2-like protein 1 [12]) was 0.18 µM. The Ki (Bcl-2-like protein 1 [13]) was 0.17 µM, the Ki (Bcl-2-like protein 1 [14]) was 0.12 µM and the Ki (Bcl-2-like protein 1 [15]) was 0.089 µM. It also gave a Ki (Bcl-2-like protein 1 [16]) of 0.0089 µM and a Ki (Bcl-2-like protein 1 [17]) of 0.38 µM.
`CN(C)CC[C@H](CSc1ccccc1)Nc1ccc(S(=O)(=O)NC(=O)c2ccc(N3CCN(Cc4ccccc4C(F)(F)F)CC3)cc2)cc1[N+](=O)[O-]` showed a Ki (Bcl-2-like protein 1 [18]) of 0.2 µM, a Ki (Bcl-2-like protein 2) of 0.049 µM and a Ki (Bcl-2-like protein 1 [19]) of 0.011 µM. It also gave a Ki [20] greater than 10 µM and a Ki (Bcl-2-like protein 1 [21]) of 0.0035 µM.
For `CN(C)CC[C@H](CSc1ccccc1)Nc1ccc(S(=O)(=O)NC(=O)c2ccc(N3CCN(Cc4ccccc4-c4ccc(Cl)cc4)CC3)cc2)cc1[N+](=O)[O-]` [ABT 737], the Ki [22] was 0.01 µM, the Kd (Bcl-2-related protein A1) was greater than 1 µM and the Kd [23] was greater than 1 µM. It also gave a Ki [24] of 0.06 µM.
H-PAELEVECATQLRRFGDKLNFRQKLL-OH gave a Ki (Bcl-2-like protein 1 [1]) greater than 10 µM, a Ki (Bcl-2-like protein 1 [2]) greater than 10 µM and a Ki (Bcl-2-like protein 1 [3]) greater than 10 µM. The Ki [4] was greater than 10 µM, the Ki (Bcl-2-like protein 1 [5]) was greater than 10 µM and the Ki [6] was greater than 10 µM. The Ki (Bcl-2-like protein 1 [7]) was greater than 10 µM, the Ki (Bcl-2-like protein 1 [8]) was greater than 10 µM and the Ki (Bcl-2-like protein 1 [9]) was greater than 10 µM. The Ki (Bcl-2-like protein 1 [10]) was greater than 10 µM, the Ki (Bcl-2-like protein 1 [11]) was greater than 10 µM and the Ki (Bcl-2-like protein 1 [12]) was greater than 10 µM. The Ki (Bcl-2-like protein 1 [13]) was greater than 10 µM, the Ki (Bcl-2-like protein 1 [14]) was greater than 10 µM and the Ki (Bcl-2-like protein 1 [15]) was greater than 10 µM. It also gave a Ki (Bcl-2-like protein 1 [16]) greater than 10 µM and a Ki (Bcl-2-like protein 1 [17]) greater than 10 µM.
